Assay results as given in PubChem BioAssay AID192 (DTP/NCI, 2004).
Several values for one entry are separate records, joined by “and”; a condition that tells them apart may be missing. Equal entries are not always repeated. Toxic doses and inconclusive results are not listed. How the source made its calls: active means survival T/C of 150% or more; inactive means T/C below 125% in these data.

Tested on: BDF1 mice, B16 melanoma ip, median survival T/C
Assay: NCI In Vivo Anticancer Drug Screen. Data for tumor model B16 Melanoma (intraperitoneal) in B6D2F1 (BDF1) mice
Conditions: endpoint: median survival time, higher = longer survival
In short: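 Tumor-bearing mice received test compound or vehicle. Survival or tumor size was then measured in both groups. The treated-group figure was divided by the control-group figure.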

[1] = dose: 37.5 mg/kg/injection, schedule: Q01DX009 (ip), vehicle: saline
[2] = dose: 25.0 mg/kg/injection, schedule: Q01DX009 (ip), vehicle: saline
[3] = dose: 50.0 mg/kg/injection, schedule: Q01DX009 (ip), vehicle: saline
[4] = dose: 25.0 mg/kg/injection, schedule: Q01DX009 (ip), vehicle: saline with Tween-80
[5] = dose: 50.0 mg/kg/injection, schedule: Q01DX009 (ip), vehicle: saline with Tween-80
[6] = dose: 100.0 mg/kg/injection, schedule: Q01DX009 (ip), vehicle: saline with Tween-80
[7] = dose: 10.0 mg/kg/injection, schedule: Q01DX009 (ip), vehicle: saline with Tween-80
[8] = dose: 100.0 mg/kg/injection, schedule: Q01DX009 (ip), vehicle: Klucel (hydroxypropylcellulose) (HPC)
[9] = dose: 100.0 mg/kg/injection, schedule: Q04DX003 (ip), vehicle: saline with Tween-80
[10] = dose: 200.0 mg/kg/injection, schedule: Q04DX003 (ip), vehicle: saline with Tween-80
[11] = dose: 400.0 mg/kg/injection, schedule: Q04DX003 (ip), vehicle: saline with Tween-80

Measured: T/C

CN(C)CCC[N+]1([O-])c2ccccc2CCc2ccccc21
inactive: dose: 4.68 mg/kg/injection, schedule: Q01DX009 (ip), vehicle: saline 97 % of control | dose: 9.37 mg/kg/injection, schedule: Q01DX009 (ip), vehicle: saline 118 % of control | dose: 18.75 mg/kg/injection, schedule: Q01DX009 (ip), vehicle: saline 95 % of control | [1] 100 % of control | dose: 75.0 mg/kg/injection, schedule: Q04DX003 (ip), vehicle: saline 96 % of control

OC1CCC(O)C1(Cl)Cl (configuration not stated)
inactive: [2] 98 % of control | [3] 109 % of control | dose: 100.0 mg/kg/injection, schedule: Q01DX009 (ip), vehicle: saline 91 % of control

CCCCCCCCCCCCCCCCCC[N+](C)(C)c1nc(Cl)nc(Cl)n1
inactive: dose: 3.13 mg/kg/injection, schedule: Q01DX009 (ip), vehicle: other 98 % of control | dose: 6.25 mg/kg/injection, schedule: Q01DX009 (ip), vehicle: other 100 % of control | dose: 12.5 mg/kg/injection, schedule: Q01DX009 (ip), vehicle: other 99 % of control

O=C1c2cccnc2C(=O)c2c(O)ccc(O)c21
inactive: [4] 92 % of control | [5] 103 % of control | [6] 112 % of control | dose: 200.0 mg/kg/injection, schedule: Q01DX009 (ip), vehicle: saline with Tween-80 89 % of control

COC(=O)C(C#N)=C(C)C
inactive: [7] 100 % of control | dose: 20.0 mg/kg/injection, schedule: Q01DX009 (ip), vehicle: saline with Tween-80 98 % of control | dose: 40.0 mg/kg/injection, schedule: Q01DX009 (ip), vehicle: saline with Tween-80 94 % of control

Nc1cc2[nH]cnc2c(=O)[nH]1
inactive: dose: 12.5 mg/kg/injection, schedule: Q01DX009 (ip), vehicle: suspension in saline 88 % of control | dose: 18.8 mg/kg/injection, schedule: Q01DX009 (ip), vehicle: saline 102 % of control | [2] 92 % of control | dose: 25.0 mg/kg/injection, schedule: Q01DX009 (ip), vehicle: suspension in saline 95 % of control | [1] 102 % of control | dose: 50.0 mg/kg/injection, schedule: Q01DX009 (ip), vehicle: suspension in saline 94 % of control | dose: 75.0 mg/kg/injection, schedule: Q01DX009 (ip), vehicle: saline 107 % of control | dose: 100.0 mg/kg/injection, schedule: Q01DX009 (ip), vehicle: suspension in saline 95 % of control | dose: 150.0 mg/kg/injection, schedule: Q01DX009 (ip), vehicle: saline 107 % of control | dose: 200.0 mg/kg/injection, schedule: Q01DX009 (ip), vehicle: suspension in saline 106 % of control

N=C(N)c1ccc(/C=C/c2ccc(C(=N)N)cc2O)cc1
inactive: dose: 3.12 mg/kg/injection, schedule: Q01DX009 (ip), vehicle: water 105 % of control and 107 % of control | dose: 6.25 mg/kg/injection, schedule: Q01DX009 (ip), vehicle: water 88 % of control and 101 % of control | dose: 12.5 mg/kg/injection, schedule: Q01DX009 (ip), vehicle: water 101 % of control and 107 % of control | dose: 25.0 mg/kg/injection, schedule: Q01DX009 (ip), vehicle: water 97 % of control and 114 % of control | dose: 50.0 mg/kg/injection, schedule: Q01DX009 (ip), vehicle: water 93 % of control and 104 % of control

CCCC(C)c1ccccc1O (configuration not stated)
inactive: [4] 108 % of control | [5] 108 % of control | [6] 92 % of control

C=CCNCC(O)c1ccccc1 (configuration not stated)
inactive: dose: 25.0 mg/kg/injection, schedule: Q01DX009 (ip), vehicle: Klucel (hydroxypropylcellulose) (HPC) 103 % of control | dose: 50.0 mg/kg/injection, schedule: Q01DX009 (ip), vehicle: Klucel (hydroxypropylcellulose) (HPC) 106 % of control | [8] 109 % of control

Cc1ccc(CCCC(=O)O)c(C)c1
inactive: [8] 104 % of control | dose: 200.0 mg/kg/injection, schedule: Q01DX009 (ip), vehicle: Klucel (hydroxypropylcellulose) (HPC) 96 % of control | dose: 400.0 mg/kg/injection, schedule: Q01DX009 (ip), vehicle: Klucel (hydroxypropylcellulose) (HPC) 97 % of control

CCN(CC)CCSC(=S)N1c2ccccc2Sc2ccccc21
inactive: dose: 1.09 mg/kg/injection, schedule: Q01DX009 (ip), vehicle: Klucel (hydroxypropylcellulose) (HPC) 109 % of control | dose: 2.18 mg/kg/injection, schedule: Q01DX009 (ip), vehicle: Klucel (hydroxypropylcellulose) (HPC) 105 % of control | dose: 4.37 mg/kg/injection, schedule: Q01DX009 (ip), vehicle: Klucel (hydroxypropylcellulose) (HPC) 107 % of control | dose: 8.75 mg/kg/injection, schedule: Q01DX009 (ip), vehicle: Klucel (hydroxypropylcellulose) (HPC) 111 % of control | dose: 17.5 mg/kg/injection, schedule: Q01DX009 (ip), vehicle: Klucel (hydroxypropylcellulose) (HPC) 100 % of control

COc1c2occc2cc2ccc(=O)oc12
inactive: dose: 8.0 mg/kg/injection, schedule: Q01DX009 (ip), vehicle: saline with Tween-80 104 % of control | dose: 16.0 mg/kg/injection, schedule: Q01DX009 (ip), vehicle: saline with Tween-80 115 % of control | [4] 103 % of control | dose: 32.0 mg/kg/injection, schedule: Q01DX009 (ip), vehicle: saline with Tween-80 95 % of control | dose: 64.0 mg/kg/injection, schedule: Q01DX009 (ip), vehicle: saline with Tween-80 114 % of control | [6] 95 % of control | dose: 128.0 mg/kg/injection, schedule: Q01DX009 (ip), vehicle: saline with Tween-80 93 % of control

COC(=O)N1CC=CCN1C(=O)OC
inactive: [9] 102 % of control | [10] 102 % of control | [11] 94 % of control

C#CCN(C)Cc1ccccc1
inactive: dose: 12.5 mg/kg/injection, schedule: Q01DX009 (ip), vehicle: saline 97 % of control | [2] 97 % of control | [3] 100 % of control

COc1cc2oc(=O)ccc2cc1[C@@H]1OC(=O)C2(C)O[C@@H]12 (some centres not stated)
inactive: dose: 0.63 mg/kg/injection, schedule: Q01DX009 (ip), vehicle: distilled water + Tween-80 103 % of control | dose: 1.25 mg/kg/injection, schedule: Q01DX009 (ip), vehicle: distilled water + Tween-80 95 % of control | dose: 5.0 mg/kg/injection, schedule: Q01DX009 (ip), vehicle: distilled water + Tween-80 102 % of control | dose: 10.0 mg/kg/injection, schedule: Q01DX009 (ip), vehicle: distilled water + Tween-80 97 % of control

COC(=O)CCCCCNC(=O)NCCCCCC(=O)OC
inactive: dose: 100.0 mg/kg/injection, schedule: Q04DX003 (ip), vehicle: Klucel (hydroxypropylcellulose) (HPC) 86 % of control | dose: 200.0 mg/kg/injection, schedule: Q04DX003 (ip), vehicle: Klucel (hydroxypropylcellulose) (HPC) 95 % of control | dose: 400.0 mg/kg/injection, schedule: Q04DX003 (ip), vehicle: Klucel (hydroxypropylcellulose) (HPC) 91 % of control

Cc1ccc(C)c(NC(=O)c2ccc(Cl)cc2Cl)c1
inactive: [9] 100 % of control | [10] 94 % of control | [11] 88 % of control

CC(=O)O[C@@H]1[C@@H](O)[C@H]2O[C@@H]3C=C(C)CC[C@]3(CO)[C@]1(C)[C@@]21CO1
inactive: dose: 1.25 mg/kg/injection, schedule: Q01DX009 (ip), vehicle: saline with Tween-80 111 % of control | dose: 2.5 mg/kg/injection, schedule: Q01DX009 (ip), vehicle: saline with Tween-80 103 % of control | dose: 5.0 mg/kg/injection, schedule: Q01DX009 (ip), vehicle: saline with Tween-80 116 % of control | [7] 100 % of control

S=c1[nH]c2ccccc2s1
inactive: dose: 25.0 mg/kg/injection, schedule: Q01DX009 (ip), vehicle: carboxymethylcellulose (CMC) 105 % of control | dose: 50.0 mg/kg/injection, schedule: Q01DX009 (ip), vehicle: carboxymethylcellulose (CMC) 103 % of control | dose: 100.0 mg/kg/injection, schedule: Q01DX009 (ip), vehicle: carboxymethylcellulose (CMC) 109 % of control
